Measurements from ChEMBL document CHEMBL1149141, “Crystal structures of the vitamin D nuclear receptor liganded with the vitamin D side chain analogues calcipotriol and seocalcitol, receptor agonists of clinical importance. Insights into a structural basis for the switching of calcipotriol to a receptor antagonist by further side chain …” (J Med Chem, 2004).

What was measured:
Vitamin D3 receptor = biological target: T1, Vitamin D3 receptor (Homo sapiens, UniProt P11473); assay: Effective concentration required for inhibition of Vitamin D3 receptor
T1 sequence (P11473 whole entry): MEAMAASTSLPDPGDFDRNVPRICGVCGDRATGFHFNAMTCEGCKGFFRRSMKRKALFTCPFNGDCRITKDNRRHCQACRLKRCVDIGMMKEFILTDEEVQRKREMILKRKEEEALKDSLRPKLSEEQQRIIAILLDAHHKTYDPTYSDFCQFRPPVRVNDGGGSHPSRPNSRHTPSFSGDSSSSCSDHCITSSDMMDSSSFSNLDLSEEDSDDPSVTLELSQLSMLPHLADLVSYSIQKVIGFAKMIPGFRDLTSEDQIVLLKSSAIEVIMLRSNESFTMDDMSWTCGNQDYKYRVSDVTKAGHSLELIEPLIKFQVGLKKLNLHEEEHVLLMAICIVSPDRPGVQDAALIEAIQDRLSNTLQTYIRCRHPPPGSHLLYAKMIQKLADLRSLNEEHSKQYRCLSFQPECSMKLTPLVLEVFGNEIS

[1] = biological target: T2, Vitamin D3 receptor (Homo sapiens) (UniProt P11473); assay: Binding of compound towards human Vitamin D3 receptor was determined in vitro
T2 sequence (whole entry): T1 sequence (P11473 whole entry)

EC50 (Vitamin D3 receptor) [nM] | Binding [1] [%] | Compound
0.35 | – | C=C1/C(=C\C=C2/CCC[C@]3(C)[C@@H]([C@H](C)/C=C/[C@@H](O)C4(/C=C/C(=O)OCC)CC4)CC[C@@H]23)C[C@@H](O)C[C@@H]1O
– | 90 | C=C1/C(=C\C=C2/CCC[C@]3(C)[C@@H]([C@H](C)/C=C/[C@@H](O)C4CC4)CC[C@@H]23)C[C@@H](O)C[C@@H]1O
– | 80 | C=C1/C(=C\C=C2/CCC[C@]3(C)[C@@H]([C@H](C)/C=C/C=C/C(O)(CC)CC)CC[C@@H]23)C[C@@H](O)C[C@@H]1O
0.4 | – | C=C1/C(=C\C=C2/CCC[C@]3(C)[C@@H]([C@H](C)/C=C/[C@@H](O)C4(C(=O)OCCCC)CC4)CC[C@@H]23)C[C@@H](O)C[C@@H]1O
